# Source: patent US20120252730A1, “PLATELET AGGREGATION INHIBITORS” (UNIVERSITY OF CHICAGO, priority 2009, published 2012)
# Ends that are not written are not given here.
# B1: HHLGGAKQAGDVC (SEQ ID NO: 21), immobilized on a self-assembled monolayer (peptide)
# peptide: HHLGGAKQAGDVC-NH2
# modifications: not fully specified (residue 13); also: C-terminal Cys thiol linked to maleimide of monolayer
# notes: also called 0.5% HHLGGAKQAGDVC SAM; γ peptide
# B2: GRGDSC (SEQ ID NO: 11), immobilized on a self-assembled monolayer (peptide)
# peptide: GRGDSC-NH2
# modifications: not fully specified (residue 6); also: C-terminal Cys thiol linked to maleimide of monolayer
# notes: also called 0.5% GRGDSC SAM
# Legend:
# αIIbβ3 CHO K1 cells [1] = test: Blocking of αIIbβ3 CHO K1 cell adhesion to GRGDSC monolayer; format: cell-based, human
# Text: (§1) FIG. 2 depicts the results of FACS analyses and binding studies of a αIIbβ3 expressing CHO K1 cell line. […] Transfected αIIbβ3 CHO K1 cells express αIIbβ3 at the cell surface, as detected by anti-β3 and PAC-1 antibody (bottom) (the middle and right hand lanes show anti-β3 antibody and PAC-1 antibody binding, respectively). Panel B is a graph of the concentration of cRGDFG (SEQ ID NO: 12; where F is a D amino acid) versus adhesion of αIIbβ3 CHO K1 cells. The peptide cRGDFG (SEQ ID NO: 12), a cyclic peptide that specifically binds to α5 and αV integrins, inhibits CHO K1 cell adhesion to 0.5% GRGDSC (SEQ ID NO: 11) SAMs. Panels C-F are photomicrographs of cells adhering to GRGDSC (SEQ ID NO: 11).
# (§2) CHO K1 cells were used that were transfected with the αIIbβ3 receptor, as described previously (Salsmann et al., 2005). Cells were transfected with pcDNA3.1 vectors that coded for αIIb and β3 using FuGENE6 and analyzed by FACS after labeling with the PAC-1 (anti-αIIbβ3) and H-96 (anti-β3) antibodies. Approximately 30% of the cells expressed the receptor (FIG. 2A). Because the CHO K1 cells also express αv and α5 integrins on their surfaces, adhesion experiments were performed in the presence of the cyclic peptide cRGDFG (SEQ ID NO: 12), where F is a D amino acid. […] All experiments that follow, unless stated otherwise, were performed in the presence of 300 μM cRGDFG (SEQ ID NO: 12).
# αvβ3 = αvβ3 (Homo sapiens, UniProt P05106+P06756); settings: cited from earlier work
# CHO K1 cells = test: Blocking of CHO K1 cell attachment to GRGDSC monolayer; format: cell-based; settings: 300 μM
# Text: as §1, §2
# αIIbβ3 CHO K1 cells [2] = test: Immunostaining of cytoskeletal structure of αIIbβ3 CHO K1 cells adherent to model substrates; format: cell-based, human; settings: monolayers presenting the peptide; four hours; anti-vinculin, phalloidin, DAPI
# Text: αIIbβ3 CHO K1 cells were allowed to adhere and spread on substrates as described above. Substrates were washed gently with PBS, and fixed and permeabilized as described above. Cells were stained with monoclonal anti-vinculin IgG to visualize focal adhesions, phalloidin to visualize stress fibers and DAPI to visualize the nucleus. Substrates were rinsed thoroughly with PBS and mounted on microscope slides with Aqua Poly/Mount (PolySciences Inc.). Substrates were visualized with a 100× objective of a Zeiss Axiovert 200 inverted microscope, and photographed.
# The assembly of focal adhesion and actin stress fibers of αIIbβ3 CHO K1 cells adhered to monolayers presenting GRGDSC (SEQ ID NO: 11), HHLGGAKQAGDVC (SEQ ID NO: 21) a mixture of both peptides, and adsorbed Fbg (FIGS. 3, E, F, G and H respectively) was compared. The αIIbβ3 CHO K1 cells were allowed to attach and spread on the monolayers for four hours, and then fixed the cells and probed with anti-vinculin IgG to visualize focal adhesions and with phalloidin-AF 488 to visualize actin stress fibers.
# αIIbβ3 CHO K1 cells [3] = test: Cell adhesion assay: αIIbβ3 CHO K1 cells on SAMs presenting immobilized peptides; format: cell-based, human; settings: 0.5% peptide SAM; in presence of 300 μM cRGDFG
# Method: Monolayers were prepared as described (Houseman, et al., 2003). Glass coverslips were sonicated for 30 minutes in deionized ultrafiltered (DIUF) water and then 30 minutes in ethanol and then dried under a stream of nitrogen. Titanium (4 nm) and then gold (29 nm) were evaporated onto the coverslips using an electron beam evaporator (Boc Edwards) at a rate of 0.05-0.10 nm/s and at a pressure of 1 μTorr. The gold-coated coverslips were immersed in an ethanolic solution of maleimide-terminated disulfide (1%) and tri(ethylene glycol)-terminated disulfide (99%) overnight at room temperature. The total disulfide concentration was 1 mM. The substrates were washed with DIUF water, ethanol and then dried under a stream of nitrogen.
# The pcDNA3.1 vectors that express human αIIb or β3, respectively, have been described previously (see e.g., Litvinov et al. (2006) Biochemistry, 45: 4957-4964). CHO K1, BHK 21 and HT1080 cells were purchased from ATCC. All CHO cells were cultured at 37° C. and 5% CO2 using F12K medium supplemented with 10% FBS and pen/strep. […] CHO K1 cells were transfected with αIIb and β3 cDNA with FuGENE following the supplier's protocol. Transfected cells were selected with 1 mg/mL zeocin and 1 mg/mL geneticin.
# (§3) Cysteine-terminated peptides were immobilized onto maleimide-presenting SAMs by adding 40 μL of 1 mM peptide solution to the biochip and incubating at 37° C. for 1 hour. Substrates were rinsed with DIUF water and ethanol and dried under a stream of nitrogen. αIIbβ3 CHO K1 cells were detached from culture plates with 1 mM EGTA/2 mM EDTA in PBS (phosphate-buffered saline), rinsed with serum-free F-12K medium, centrifuged and resuspended in serum-free F-12K medium supplemented with cRGDFG (SEQ ID NO: 12) (300 μM) and 1× penicillin/streptomycin. After 15-minute of incubation, cells (200,000/mL) were added to substrates in 24-well culture plates. After 2 hour incubation at 37° C. and 5% CO2, media was exchanged for F-12K medium supplemented with 10% FBS, 1× penicillin/streptomycin and cRGDFG (SEQ ID NO: 12) (300 μM). After 2 hours, the substrates were washed gently with warm PBS, and adherent cells were immediately fixed with 4% formaldehyde for 30 minutes, visualized with a 20× objective of a Zeiss Axiovert 200 inverted microscope, and photographed. For cell adhesion assays mediated by Ac-GXGDSC (SEQ ID NO: 26), αIIbβ3 CHO K1 cells were incubated on a 5×4 circle (1 mm diameter) array for 1 hour with serum-free F-12K medium supplemented with cRGDFG (SEQ ID NO: 12) (300 μM) and 1× penicillin/streptomycin, followed by media exchange to F-12K medium supplemented with 10% FBS, 1× penicillin/streptomycin and cRGDFG (SEQ ID NO: 12) (300 μM. The substrates were washed with warm PBS, and adherent cells were immediately fixed and permeabilized with 4% formaldehyde and 0.5% Triton-X for 30 minutes. Fixed cells were stained with DAPI, visualized and photographed with a 20× objective as described. The number of adherent cells per field of view was counted using Image J software. Cells were counted in at least three fields for each circle, and each experiment was repeated 3 times. The degree of adhesion is reported as a percentage of cells that adhere relative to control experiments with the peptide Ac-GRGDSC (SEQ ID NO: 28).
# Monolayers were prepared that presented a mixture of maleimide groups and tri(ethylene glycol) groups with the former present at a density of 0.5% (relative to total alkanethiolate). The monolayers were treated with cysteine-terminated peptides to immobilize the ligands (FIG. 1A). In each case mass spectrometry was used to verify immobilization of the peptides in high yield (Su et al., 2002).
# The adhesion and spreading of αIIbβ3 CHO K1 cells to monolayers presenting GRGDSC (SEQ ID NO: 11), HHLGGAKQAGDVC (SEQ ID NO: 21) and a mixture of both peptides was compared. […]
# CHO-K1 cells = test: Ac-GXGDSC peptide array cell adhesion, CHO K1 cells; format: cell-based
# Method: Cysteine-terminated peptides were immobilized onto maleimide-presenting SAMs by adding 40 μL of 1 mM peptide solution to the biochip and incubating at 37° C. for 1 hour. Substrates were rinsed with DIUF water and ethanol and dried under a stream of nitrogen. αIIbβ3 CHO K1 cells were detached from culture plates with 1 mM EGTA/2 mM EDTA in PBS (phosphate-buffered saline), rinsed with serum-free F-12K medium, centrifuged and resuspended in serum-free F-12K medium supplemented with cRGDFG (SEQ ID NO: 12) (300 μM) and 1× penicillin/streptomycin. After 15-minute of incubation, cells (200,000/mL) were added to substrates in 24-well culture plates. After 2 hour incubation at 37° C. and 5% CO2, media was exchanged for F-12K medium supplemented with 10% FBS, 1× penicillin/streptomycin and cRGDFG (SEQ ID NO: 12) (300 μM). After 2 hours, the substrates were washed gently with warm PBS, and adherent cells were immediately fixed with 4% formaldehyde for 30 minutes, visualized with a 20× objective of a Zeiss Axiovert 200 inverted microscope, and photographed. […] The number of adherent cells per field of view was counted using Image J software. Cells were counted in at least three fields for each circle, and each experiment was repeated 3 times. […]
# BHK 21 cells = test: Ac-GXGDSC peptide array cell adhesion, BHK 21 cells; format: cell-based
# HT1080 cells = test: Ac-GXGDSC peptide array cell adhesion, HT1080 cells; format: cell-based
# αIIbβ3 CHO K1 cells [4] = test: Ac-GXGDSC peptide array cell adhesion, αIIbβ3 CHO K1 cells; format: cell-based, human; settings: 0.5% peptide spots; 300 μM cRGDFG
# Method: as §3
# To further assay the binding of peptide ligands to the […] integrin for XGD peptide ligands, an array was used to assess the adhesion of cells to peptides having the arginine residue substituted with each amino acid other than cysteine (e.g., A, D, E, F, G, H, I, K, L, M, N, P, Q, R, S, T, V, W, and Y). The library of Ac-GXGDSC (SEQ ID NO: 26) peptides was synthesized and immobilized in an array with each peptide occupying a 1 mm diameter region of the monolayer (FIG. 61). A suspension of αIIbβ3 CHO K1 cells was applied to the entire array and cells were allowed to attach to regions presenting the various peptides. The substrates were then rinsed and stained with DAPI, and the cells were counted to determine the relative efficiency of cell attachment to peptides in the library. […] Substitution with leucine and isoleucine were also active, though at a lower level.
# platelets [5] = settings: cited from earlier work
# αIIbβ3 = molecular target: T1, αIIbβ3 (Homo sapiens, UniProt P05106+P08514); settings: cited from earlier work
# T1 construct: host or cells: platelets
# platelets [6] = settings: cited from earlier work; remark: listed apart in the source
# [7] = molecular target: T2, human αIIbβ3 integrin on transfected CHO K1 cells (human, UniProt P08514 32-1039; P05106 27-788); test: adhesion of αIIbβ3 CHO cells to the peptide monolayer, 300 µM cRGDFG present
# T2 construct: whole, on cells; CHO K1 cells transfected with human αIIb and β3 cDNA; about 30% of the cells expressed the receptor; also called platelet receptor; platelet integrin
# Method: For cell adhesion assays mediated by Ac-GXGDSC (SEQ ID NO: 26), αIIbβ3 CHO K1 cells were incubated on a 5×4 circle (1 mm diameter) array for 1 hour with serum-free F-12K medium supplemented with cRGDFG (SEQ ID NO: 12) (300 μM) and 1× penicillin/streptomycin, followed by media exchange to F-12K medium supplemented with 10% FBS, 1× penicillin/streptomycin and cRGDFG (SEQ ID NO: 12) (300 μM. The substrates were washed with warm PBS, and adherent cells were immediately fixed and permeabilized with 4% formaldehyde and 0.5% Triton-X for 30 minutes. Fixed cells were stained with DAPI, visualized and photographed with a 20× objective as described. The number of adherent cells per field of view was counted using Image J software. Cells were counted in at least three fields for each circle, and each experiment was repeated 3 times. The degree of adhesion is reported as a percentage of cells that adhere relative to control experiments with the peptide Ac-GRGDSC (SEQ ID NO: 28).
# CHO K1 cells were used that were transfected with the αIIbβ3 receptor, as described previously (Salsmann et al., 2005). Cells were transfected with pcDNA3.1 vectors that coded for αIIb and β3 using FuGENE6 and analyzed by FACS after labeling with the PAC-1 (anti-αIIbβ3) and H-96 (anti-β3) antibodies. Approximately 30% of the cells expressed the receptor (FIG. 2A). […]
# Chain of αvβ3 (P06756 31-889 limits assumed): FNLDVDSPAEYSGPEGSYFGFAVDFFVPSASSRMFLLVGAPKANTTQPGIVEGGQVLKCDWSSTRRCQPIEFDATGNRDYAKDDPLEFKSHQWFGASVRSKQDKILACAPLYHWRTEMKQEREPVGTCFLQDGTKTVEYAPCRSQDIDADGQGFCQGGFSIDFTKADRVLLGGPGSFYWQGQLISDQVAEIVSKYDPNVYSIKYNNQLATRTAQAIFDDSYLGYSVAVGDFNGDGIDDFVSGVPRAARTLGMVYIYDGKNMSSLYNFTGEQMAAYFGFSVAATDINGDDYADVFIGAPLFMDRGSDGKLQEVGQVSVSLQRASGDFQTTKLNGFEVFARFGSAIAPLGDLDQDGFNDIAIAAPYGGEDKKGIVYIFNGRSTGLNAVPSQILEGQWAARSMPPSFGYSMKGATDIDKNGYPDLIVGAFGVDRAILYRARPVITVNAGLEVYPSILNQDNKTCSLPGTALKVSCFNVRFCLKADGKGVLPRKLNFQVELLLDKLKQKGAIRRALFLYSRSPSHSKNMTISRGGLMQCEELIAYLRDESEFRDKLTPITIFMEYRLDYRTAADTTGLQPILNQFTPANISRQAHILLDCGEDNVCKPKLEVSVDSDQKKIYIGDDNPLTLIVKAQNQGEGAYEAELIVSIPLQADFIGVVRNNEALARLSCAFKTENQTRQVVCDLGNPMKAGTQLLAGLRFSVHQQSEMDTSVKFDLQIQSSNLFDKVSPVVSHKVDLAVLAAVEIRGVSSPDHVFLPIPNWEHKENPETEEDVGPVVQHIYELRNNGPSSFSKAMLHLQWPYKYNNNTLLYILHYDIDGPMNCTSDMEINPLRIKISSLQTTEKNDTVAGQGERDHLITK
# Chain of αvβ3 (P06756 891-1048 partner limits assumed): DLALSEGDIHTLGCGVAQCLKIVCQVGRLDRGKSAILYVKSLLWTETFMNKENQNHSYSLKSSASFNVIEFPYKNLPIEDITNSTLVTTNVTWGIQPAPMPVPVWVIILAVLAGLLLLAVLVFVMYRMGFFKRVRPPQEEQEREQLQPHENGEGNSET
# Chain of αvβ3 (P05106 27-788): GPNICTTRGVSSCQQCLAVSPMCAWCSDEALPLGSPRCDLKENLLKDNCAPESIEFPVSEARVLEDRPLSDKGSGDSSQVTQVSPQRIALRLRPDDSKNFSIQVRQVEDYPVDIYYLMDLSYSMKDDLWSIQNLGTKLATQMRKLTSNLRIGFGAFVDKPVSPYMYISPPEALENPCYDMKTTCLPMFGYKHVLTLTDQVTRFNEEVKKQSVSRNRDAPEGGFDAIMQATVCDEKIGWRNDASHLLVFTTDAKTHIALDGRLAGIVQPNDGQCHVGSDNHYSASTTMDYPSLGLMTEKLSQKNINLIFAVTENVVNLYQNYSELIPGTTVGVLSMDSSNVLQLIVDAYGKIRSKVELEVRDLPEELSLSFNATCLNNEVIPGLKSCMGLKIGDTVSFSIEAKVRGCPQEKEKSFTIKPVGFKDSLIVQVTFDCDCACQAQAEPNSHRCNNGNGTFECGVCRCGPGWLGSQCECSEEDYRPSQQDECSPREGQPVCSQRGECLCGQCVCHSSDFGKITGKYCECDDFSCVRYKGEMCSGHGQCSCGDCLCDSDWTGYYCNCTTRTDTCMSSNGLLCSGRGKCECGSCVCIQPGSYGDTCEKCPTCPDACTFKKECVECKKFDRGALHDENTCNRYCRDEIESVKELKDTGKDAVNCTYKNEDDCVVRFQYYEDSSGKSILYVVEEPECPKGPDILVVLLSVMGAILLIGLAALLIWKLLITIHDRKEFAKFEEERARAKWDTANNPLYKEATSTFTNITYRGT
molecule,measurement,setting,value
cRGDFG,effect on adhesion of αIIbβ3 CHO K1 cells to monolayer presenting GRGDSC,αIIbβ3 CHO K1 cells [1]; 300 μM,did not interfere with adhesion
same,IC50,αvβ3,1.6 nM
same,affinity for αvβ3 relative to αIIbβ3 integrin,αvβ3,"approximately 1,400 fold"
same,block of attachment of CHO K1 cells to monolayer presenting GRGDSC,CHO K1 cells,could efficiently block the attachment
PAC-1,effect on adhesion of αIIbβ3 CHO K1 cells to monolayer presenting GRGDSC,αIIbβ3 CHO K1 cells [1]; PAC-1 antibody together with cyclic peptide inhibitor cRGDFG,prevented cell adhesion to the monolayer
GRGDSC (GRGDSC-NH2) [Cys-terminated fibrinogen RGD peptide immobilized on monolayer],cytoskeletal structure and focal adhesions of adherent cells,αIIbβ3 CHO K1 cells [2],well-developed cytoskeletal structures and mature focal adhesions along the perimeter
same,adhesion of αIIbβ3 CHO K1 cells to monolayer presenting the peptide,αIIbβ3 CHO K1 cells [3],adhered
Ac-GRGDSC (Ac-GRGDSC-NH2),cell adhesion on Ac-GXGDSC array,CHO-K1 cells,promoted significant cell adhesion
same,cell adhesion on Ac-GXGDSC array,BHK 21 cells,promoted significant cell adhesion
same,cell adhesion on Ac-GXGDSC array,HT1080 cells,promoted significant cell adhesion
same,cell adhesion on Ac-GXGDSC array relative to Ac-GRGDSC,αIIbβ3 CHO K1 cells [4],mediated αIIbβ3 CHO K1 cell adhesion
RGD,inhibition of A2A9 binding to platelets,platelets [5],not
HHLGGAKQAGDVC (HHLGGAKQAGDVC-NH2) [Cys-terminated fibrinogen γ chain peptide immobilized on monolayer],cytoskeletal structure and focal adhesions of adherent cells,αIIbβ3 CHO K1 cells [2],well-developed cytoskeletal structures and mature focal adhesions along the perimeter
same,adhesion of αIIbβ3 CHO K1 cells to monolayer presenting the peptide,αIIbβ3 CHO K1 cells [3],adhered
RGDS (synthesized peptide inhibitor),inhibition of PAC-1 binding,αIIbβ3,blocked the binding of both PAC-1 and Fbg to platelets with equal potency
same,inhibition of Fbg binding to platelets,platelets [6],blocked the binding of both PAC-1 and Fbg to platelets with equal potency
LGGAKQAGDV (not fully specified (C-terminus)) [γ-derived peptide],less potent in inhibiting PAC-1 binding to αIIbβ3,αIIbβ3; compared with its inhibition of Fbg binding / RGDS,2.5 fold
same,inhibition of Fbg binding to platelets,platelets [6],inhibited Fbg binding to platelets with an affinity comparable to that of RGDS
same,inhibition of A2A9 binding to platelets,platelets [5],could inhibit the binding of A2A9 to platelets
B1,binding result,[7],binds
B2,binding result,[7],binds
